# Reference: US20250382279A1, “COMPOUNDS AND METHODS FOR YAP/TEAD MODULATION AND INDICATIONS THEREFOR” (OPNA BIO SA, priority 2023, published 2025)
# Tested on: TEAD-dependent transcription
# Experiment: Inhibitor activity against TEAD-dependent transcription in a cell-based reporter assay (MSTO-211H+12XGTIIC luciferase)
# Details: Homo sapiens; MSTO-211H+12XGTIIC cell line, 24 hours compound incubation, luminescence normalized to cell viability fluorescence; read-out: MSTO-211H GMean IC50 (uM) Cell Assay Reporter Cell Variant: TEAD
# Text: Determine Inhibitor Activity Against TEAD-Dependent Transcription in a Cell-Based Reporter Assay
# The human mesothelioma cell line MSTO-211H was stably transfected with a pGL4.21 plasmid containing a synthetic promoter with 12 copies of the GTIIC TEAD response element that drives the expression of a luciferase reporter gene^1 using Lipofectamine transfection reagent (Thermno Fisher). Transfected cells were selected using puromycin and single cell clones expressing this construct (referred to as MSTO-211H+12XGTIIC) were generated by limiting dilution. MSTO-211H cells was characterized by genetic alterations in key components of the Hippo pathway^2, resulting in up-regulation of YAP/TEAD-mediated transcription. […] To evaluate TEAD inhibitors, the MSTO-211H+12XGTIIC cell line was seeded in a 96-well plate in 50 μL of culture media at 1×10^4 cells per well and incubated at 37° C. overnight. Serial dilutions of compounds (in total volume of 50 μL of culture media) were added to the cells and incubated at 37° C. for 24 hours. Each plate included cells treated with DMSO as high controls and cells treated with 20 μM of the reference compound K-975 (a known TEAD inhibitor)^3 as low controls. Cell viability was assayed by the addition of 25 μL of CellTiter-Fluor reagent (Promega) followed by a 30-minute incubation at 37° C. and quantification of the fluorescence signal (Ex400/Em505). Subsequently, luciferase expression was assayed by the addition of 25 μL of ONE-Glo reagent (Promega) followed by a 10-minute incubation at room temperature and quantification of the luminescence signal. The luminescence signal was normalized to the fluorescence signal to correct for any loss in cell viability over the 24-hour compound incubation period. The percentage of inhibition of normalized luminescence signal, indicative of compound-mediated inhibition of TEAD-dependent transcription, at individual compound concentrations relative to high and low controls was calculated. The data were analyzed by using nonlinear regression to generate IC50 values for individual compounds.
row,Compound,IC50
1,"CS(=O)(=O)c1cccc(N2CCc3c(Oc4ccc(C(F)(F)F)cc4)cccc3C2=O)c1 [O-0001, 2-(3-(methylsulfonyl)phenyl)-5-(4-(trifluoromethyl)phenoxy)-3,4-dihydroisoquinolin-1(2H)-one]",0.001 to 10 µM
2,"CS(=O)(=O)c1ccc(N2CCc3c(Oc4ccc(C(F)(F)F)cc4)cccc3C2=O)cc1 [O-0002, 2-(4-(methylsulfonyl)phenyl)-5-(4-(trifluoromethyl)phenoxy)-3,4-dihydroisoquinolin-1(2H)-one]",0.001 to 10 µM
3,"O=C1c2cccc(Oc3ccc(C(F)(F)F)cc3)c2CCN1c1cccc(C(F)(F)F)c1 [O-0003, 5-(4-(trifluoromethyl)phenoxy)-2-(3-(trifluoromethyl)phenyl)-3,4-dihydroisoquinolin-1(2H)-one]",0.001 to 10 µM
4,"O=C1c2cccc(Oc3ccc(C(F)(F)F)cc3)c2CCN1c1ccc(S(=O)(=O)C(F)(F)F)cc1 [O-0004, 5-(4-(trifluoromethyl)phenoxy)-2-(4-((trifluoromethyl)sulfonyl)phenyl)-3,4-dihydroisoquinolin-1(2H)-one]",0.001 to 10 µM
5,"O=C1c2cccc(Oc3ccc(C(F)(F)F)cc3)c2CCN1c1cccc(S(=O)(=O)C(F)(F)F)c1 [O-0005, 5-(4-(trifluoromethyl)phenoxy)-2-(3-((trifluoromethyl)sulfonyl)phenyl)-3,4-dihydroisoquinolin-1(2H)-one]",0.001 to 10 µM
6,"CS(=O)(=O)C1CC(N2CCc3c(Oc4ccc(C(F)(F)F)cc4)cccc3C2=O)C1 (centres unmarked) [O-0006, 2-(3-(methylsulfonyl)cyclobutyl)-5-(4-(trifluoromethyl)phenoxy)-3,4-dihydroisoquinolin-1(2H)-one]",0.001 to 10 µM
7,"CS(=O)(=O)c1nccc(N2CCc3c(Oc4ccc(C(F)(F)F)cc4)cccc3C2=O)n1 [O-0007, 2-(2-(methylsulfonyl)pyrimidin-4-yl)-5-(4-(trifluoromethyl)phenoxy)-3,4-dihydroisoquinolin-1(2H)-one]",0.001 to 10 µM
8,"Nc1ccc(N2CCc3c(Oc4ccc(C(F)(F)F)cc4)cccc3C2=O)cc1 [O-0010, 2-(4-aminophenyl)-5-(4-(trifluoromethyl)phenoxy)-3,4-dihydroisoquinolin-1(2H)-one]",0.001 to 10 µM
9,"Nc1cccc(N2CCc3c(Oc4ccc(C(F)(F)F)cc4)cccc3C2=O)c1 [O-0011, 2-(3-aminophenyl)-5-(4-(trifluoromethyl)phenoxy)-3,4-dihydroisoquinolin-1(2H)-one]",0.001 to 10 µM
10,"C=CC(=O)Nc1cccc(N2CCc3c(Oc4ccc(C(F)(F)F)cc4)cccc3C2=O)c1 [O-0012, N-(3-(1-oxo-5-(4-(trifluoromethyl)phenoxy)-3,4-dihydroisoquinolin-2(1H)-yl)phenyl)acrylamide]",0.001 to 10 µM
11,"C=CC(=O)Nc1ccc(N2CCc3c(Oc4ccc(C(F)(F)F)cc4)cccc3C2=O)cc1 [O-0013, N-(4-(1-oxo-5-(4-(trifluoromethyl)phenoxy)-3,4-dihydroisoquinolin-2(1H)-yl)phenyl)acrylamide]",0.001 to 10 µM
12,"O=C1c2cccc(Oc3ccc(C(F)(F)F)cc3)c2CCN1c1ccc2nc(C(F)(F)F)sc2c1 [O-0014, 2-(2-(trifluoromethyl)benzo[d]thiazol-6-yl)-5-(4-(trifluoromethyl)phenoxy)-3,4-dihydroisoquinolin-1(2H)-one]",0.001 to 10 µM
13,"O=C1c2cccc(Oc3ccc(C(F)(F)F)cc3)c2CCN1c1ccc2nc(C(F)(F)F)[nH]c2c1 [O-0016, 2-(2-(trifluoromethyl)-1H-benzo[d]imidazol-6-yl)-5-(4-(trifluoromethyl)phenoxy)-3,4-dihydroisoquinolin-1(2H)-one]",0.001 to 10 µM
14,"N#Cc1nc2ccc(N3CCc4c(Oc5ccc(C(F)(F)F)cc5)cccc4C3=O)cc2o1 [O-0017, 6-(1-oxo-5-(4-(trifluoromethyl)phenoxy)-3,4-dihydroisoquinolin-2(1H)-yl)benzo[d]oxazole-2-carbonitrile]",0.001 to 10 µM
15,"CS(=O)(=O)N1CCC(N2CCc3c(Oc4ccc(C(F)(F)F)cc4)cccc3C2=O)CC1 [O-0018, 2-(1-(methylsulfonyl)piperidin-4-yl)-5-(4-(trifluoromethyl)phenoxy)-3,4-dihydroisoquinolin-1(2H)-one]",0.001 to 10 µM
16,"O=C1c2cccc(Oc3ccc(C(F)(F)F)cc3)c2CCN1c1ccnc(S(=O)(=O)C(F)(F)F)n1 [O-0019, 5-(4-(trifluoromethyl)phenoxy)-2-(2-((trifluoromethyl)sulfonyl)pyrimidin-4-yl)-3,4-dihydroisoquinolin-1(2H)-one]",0.001 to 10 µM

row,Compound,IC50
1,"O=C1c2cccc(Oc3ccc(C(F)(F)F)cc3)c2CCN1C1CCN(S(=O)(=O)C(F)(F)F)CC1 [O-0020, 5-(4-(trifluoromethyl)phenoxy)-2-(1-((trifluoromethyl)sulfonyl)piperidin-4-yl)-3,4-dihydroisoquinolin-1(2H)-one]",0.001 to 10 µM
2,"CS(=O)(=O)N1CCCC(N2CCc3c(Oc4ccc(C(F)(F)F)cc4)cccc3C2=O)C1 (centres unmarked) [O-0022, 2-(1-(methylsulfonyl)piperidin-3-yl)-5-(4-(trifluoromethyl)phenoxy)-3,4-dihydroisoquinolin-1(2H)-one]",0.001 to 10 µM
3,"CS(=O)(=O)N1CCC(N2CCc3c(Oc4ccc(C(F)(F)F)cc4)cccc3C2=O)C1 (centres unmarked) [O-0027, 2-(1-(methylsulfonyl)pyrrolidin-3-yl)-5-(4-(trifluoromethyl)phenoxy)-3,4-dihydroisoquinolin-1(2H)-one]",0.001 to 10 µM
4,"CS(=O)(=O)c1cccc(N2CCc3ccc(Oc4ccc(C(F)(F)F)cc4)cc3C2=O)n1 [O-0031, 2-(6-(methylsulfonyl)pyridin-2-yl)-7-(4-(trifluoromethyl)phenoxy)-3,4-dihydroisoquinolin-1(2H)-one]",0.001 to 10 µM
5,"O=C1c2cc(Oc3ccc(C(F)(F)F)cc3)ccc2CCN1c1cccc(S(=O)(=O)C(F)(F)F)n1 [O-0032, 7-(4-(trifluoromethyl)phenoxy)-2-(6-((trifluoromethyl)sulfonyl)pyridin-2-yl)-3,4-dihydroisoquinolin-1(2H)-one]",0.001 to 10 µM
6,"CS(=O)(=O)c1ccnc(N2CCc3ccc(Oc4ccc(C(F)(F)F)cc4)cc3C2=O)c1 [O-0033, 2-(4-(methylsulfonyl)pyridin-2-yl)-7-(4-(trifluoromethyl)phenoxy)-3,4-dihydroisoquinolin-1(2H)-one]",0.001 to 10 µM
7,"O=C1c2cc(Oc3ccc(C(F)(F)F)cc3)ccc2CCN1c1cccc(S(=O)(=O)C(F)(F)F)c1 [O-0035, 7-(4-(trifluoromethyl)phenoxy)-2-(3-((trifluoromethyl)sulfonyl)phenyl)-3,4-dihydroisoquinolin-1(2H)-one]",0.001 to 10 µM
8,"CS(=O)(=O)c1nccc(N2CCc3ccc(Oc4ccc(C(F)(F)F)cc4)cc3C2=O)n1 [O-0036, 2-(2-(methylsulfonyl)pyrimidin-4-yl)-7-(4-(trifluoromethyl)phenoxy)-3,4-dihydroisoquinolin-1(2H)-one]",0.001 to 10 µM
9,"O=C1c2cc(Oc3ccc(C(F)(F)F)cc3)ccc2CCN1c1cccc(-c2nccs2)c1 [O-0038, 2-(3-(thiazol-2-yl)phenyl)-7-(4-(trifluoromethyl)phenoxy)-3,4-dihydroisoquinolin-1(2H)-one]",0.001 to 10 µM
10,"O=C1c2cc(Oc3ccc(C(F)(F)F)cc3)ccc2CCN1c1cccc(-c2cscn2)c1 [O-0039, 2-(3-(thiazol-4-yl)phenyl)-7-(4-(trifluoromethyl)phenoxy)-3,4-dihydroisoquinolin-1(2H)-one]",0.001 to 10 µM
11,"O=C1c2cc(Oc3ccc(C(F)(F)F)cc3)ccc2CCN1c1ccnc(S(=O)(=O)C(F)(F)F)n1 [O-0044, 7-(4-(trifluoromethyl)phenoxy)-2-(2-((trifluoromethyl)sulfonyl)pyrimidin-4-yl)-3,4-dihydroisoquinolin-1(2H)-one]",0.001 to 10 µM
12,"O=C1c2cc(Oc3ccc(C(F)(F)F)cc3)ccc2CCN1c1ccc2nc(C(F)(F)F)[nH]c2c1 [O-0045, 2-(2-(trifluoromethyl)-1H-benzo[d]imidazol-6-yl)-7-(4-(trifluoromethyl)phenoxy)-3,4-dihydroisoquinolin-1(2H)-one]",0.001 to 10 µM
13,"O=C1c2cc(Oc3ccc(C(F)(F)F)cc3)ccc2CCN1c1ccc2nc(C(F)(F)F)sc2c1 [O-0046, 2-(2-(trifluoromethyl)benzo[d]thiazol-6-yl)-7-(4-(trifluoromethyl)phenoxy)-3,4-dihydroisoquinolin-1(2H)-one]",0.001 to 10 µM
14,"C=CC(=O)Nc1cncc(N2CCc3ccc(Oc4ccc(C(F)(F)F)cc4)cc3C2=O)c1 [O-0108, N-(5-(1-oxo-7-(4-(trifluoromethyl)phenoxy)-3,4-dihydroisoquinolin-2(1H)-yl)pyridin-3-yl)acrylamide]",0.001 to 10 µM
15,"Nc1cncc(N2CCc3ccc(Oc4ccc(C(F)(F)F)cc4)cc3C2=O)c1 [O-0110, 2-(5-aminopyridin-3-yl)-7-(4-(trifluoromethyl)phenoxy)-3,4-dihydroisoquinolin-1(2H)-one]",0.001 to 10 µM
16,"Nc1cccc(N2CCc3ccc(Oc4ccc(C(F)(F)F)cc4)cc3C2=O)n1 [O-0111, 2-(6-aminopyridin-2-yl)-7-(4-(trifluoromethyl)phenoxy)-3,4-dihydroisoquinolin-1(2H)-one]",0.001 to 10 µM
